Assay in all cases: biochemical
In assay [1] the target is T1, panel of 374 wild-type kinases (Homo sapiens, UniProt O60285).
T1 construct: purchased Reaction Biology Corporation
T1 sequence (O60285 1-661): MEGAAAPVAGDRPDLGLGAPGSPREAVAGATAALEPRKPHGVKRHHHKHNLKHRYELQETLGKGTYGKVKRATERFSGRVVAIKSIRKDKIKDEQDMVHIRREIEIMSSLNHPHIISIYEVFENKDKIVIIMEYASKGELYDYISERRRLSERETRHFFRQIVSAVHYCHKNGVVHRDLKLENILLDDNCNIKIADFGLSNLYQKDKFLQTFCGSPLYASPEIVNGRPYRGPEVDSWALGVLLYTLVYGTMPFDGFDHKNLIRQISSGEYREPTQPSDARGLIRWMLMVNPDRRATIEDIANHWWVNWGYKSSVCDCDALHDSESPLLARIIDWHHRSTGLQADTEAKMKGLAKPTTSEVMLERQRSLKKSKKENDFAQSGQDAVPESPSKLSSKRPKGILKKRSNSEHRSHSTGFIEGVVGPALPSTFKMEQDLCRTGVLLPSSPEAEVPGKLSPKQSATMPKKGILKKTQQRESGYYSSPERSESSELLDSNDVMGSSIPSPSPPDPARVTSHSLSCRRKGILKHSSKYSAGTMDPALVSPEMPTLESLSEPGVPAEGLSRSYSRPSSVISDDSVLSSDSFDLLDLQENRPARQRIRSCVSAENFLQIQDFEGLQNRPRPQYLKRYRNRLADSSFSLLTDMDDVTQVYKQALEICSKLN
The following applies: read-out: % Enzyme Activity (relative to DMSO controls), ARK5/NUAK1.

Assay [2] deals with T2, panel of 374 wild-type kinases (Homo sapiens, UniProt P07949).
T2 construct: purchased Reaction Biology Corporation
The settings on record: read-out: % Enzyme Activity (relative to DMSO controls), kinase RET.

Assay [3] addresses T3, panel of 374 wild-type kinases (Homo sapiens, UniProt P29597).
T3 construct: purchased Reaction Biology Corporation
The settings on record: read-out: % Enzyme Activity (relative to DMSO controls), kinase TYK2.

The target in assay [4] is T4, panel of 374 wild-type kinases (Homo sapiens, UniProt P53778).
T4 construct: purchased Reaction Biology Corporation
T4 sequence (P53778 1-367): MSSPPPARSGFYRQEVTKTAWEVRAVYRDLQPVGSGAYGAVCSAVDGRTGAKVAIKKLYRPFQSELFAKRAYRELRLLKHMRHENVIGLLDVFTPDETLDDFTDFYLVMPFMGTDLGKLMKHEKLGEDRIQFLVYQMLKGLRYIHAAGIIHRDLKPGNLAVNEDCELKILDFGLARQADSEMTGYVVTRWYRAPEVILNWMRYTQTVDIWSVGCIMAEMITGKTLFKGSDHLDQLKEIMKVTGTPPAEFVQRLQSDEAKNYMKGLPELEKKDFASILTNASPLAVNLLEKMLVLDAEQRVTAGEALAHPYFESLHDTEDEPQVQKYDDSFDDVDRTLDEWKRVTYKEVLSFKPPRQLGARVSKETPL
The following applies: read-out: % Enzyme Activity (relative to DMSO controls), kinase P38g.

For assay [5], the target named is T5, panel of 374 wild-type kinases (Homo sapiens, UniProt Q6P5Z2).
T5 construct: purchased Reaction Biology Corporation
The settings on record: read-out: % Enzyme Activity (relative to DMSO controls), kinase PKN3/PRK3.

In assay [6] the target is T6, panel of 374 wild-type kinases (Homo sapiens, UniProt Q9UF33).
T6 construct: purchased Reaction Biology Corporation
T6 sequence (Q9UF33 23-1036): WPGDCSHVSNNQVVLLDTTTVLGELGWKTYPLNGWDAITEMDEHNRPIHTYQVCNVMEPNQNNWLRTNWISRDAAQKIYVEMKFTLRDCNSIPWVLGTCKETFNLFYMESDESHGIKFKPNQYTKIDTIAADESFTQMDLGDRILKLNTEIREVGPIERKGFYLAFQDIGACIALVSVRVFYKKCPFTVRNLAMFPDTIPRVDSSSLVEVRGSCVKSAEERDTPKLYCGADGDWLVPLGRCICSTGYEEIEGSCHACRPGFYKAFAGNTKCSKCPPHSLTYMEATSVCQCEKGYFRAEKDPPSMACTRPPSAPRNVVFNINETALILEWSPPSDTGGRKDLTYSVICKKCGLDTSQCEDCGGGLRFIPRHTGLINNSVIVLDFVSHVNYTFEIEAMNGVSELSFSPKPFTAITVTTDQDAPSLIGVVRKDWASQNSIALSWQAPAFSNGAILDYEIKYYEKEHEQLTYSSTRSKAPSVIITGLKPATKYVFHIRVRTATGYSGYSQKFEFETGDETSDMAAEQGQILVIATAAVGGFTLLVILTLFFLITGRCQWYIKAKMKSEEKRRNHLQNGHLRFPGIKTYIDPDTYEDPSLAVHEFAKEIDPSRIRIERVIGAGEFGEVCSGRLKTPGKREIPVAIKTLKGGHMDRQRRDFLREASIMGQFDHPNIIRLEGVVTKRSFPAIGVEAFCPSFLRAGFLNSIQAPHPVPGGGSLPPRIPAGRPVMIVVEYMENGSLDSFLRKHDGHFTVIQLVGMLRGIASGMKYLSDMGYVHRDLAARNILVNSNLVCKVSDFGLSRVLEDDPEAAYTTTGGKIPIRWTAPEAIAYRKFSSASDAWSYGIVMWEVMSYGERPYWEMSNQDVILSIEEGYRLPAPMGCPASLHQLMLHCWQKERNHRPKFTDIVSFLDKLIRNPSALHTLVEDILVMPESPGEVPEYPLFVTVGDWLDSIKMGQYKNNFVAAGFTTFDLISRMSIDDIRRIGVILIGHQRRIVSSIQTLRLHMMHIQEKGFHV
The following applies: EPHA6, read-out: % Enzyme Activity (relative to DMSO controls).

Each structure is given as a SMILES string.

T5 sequence (Q6P5Z2 whole entry): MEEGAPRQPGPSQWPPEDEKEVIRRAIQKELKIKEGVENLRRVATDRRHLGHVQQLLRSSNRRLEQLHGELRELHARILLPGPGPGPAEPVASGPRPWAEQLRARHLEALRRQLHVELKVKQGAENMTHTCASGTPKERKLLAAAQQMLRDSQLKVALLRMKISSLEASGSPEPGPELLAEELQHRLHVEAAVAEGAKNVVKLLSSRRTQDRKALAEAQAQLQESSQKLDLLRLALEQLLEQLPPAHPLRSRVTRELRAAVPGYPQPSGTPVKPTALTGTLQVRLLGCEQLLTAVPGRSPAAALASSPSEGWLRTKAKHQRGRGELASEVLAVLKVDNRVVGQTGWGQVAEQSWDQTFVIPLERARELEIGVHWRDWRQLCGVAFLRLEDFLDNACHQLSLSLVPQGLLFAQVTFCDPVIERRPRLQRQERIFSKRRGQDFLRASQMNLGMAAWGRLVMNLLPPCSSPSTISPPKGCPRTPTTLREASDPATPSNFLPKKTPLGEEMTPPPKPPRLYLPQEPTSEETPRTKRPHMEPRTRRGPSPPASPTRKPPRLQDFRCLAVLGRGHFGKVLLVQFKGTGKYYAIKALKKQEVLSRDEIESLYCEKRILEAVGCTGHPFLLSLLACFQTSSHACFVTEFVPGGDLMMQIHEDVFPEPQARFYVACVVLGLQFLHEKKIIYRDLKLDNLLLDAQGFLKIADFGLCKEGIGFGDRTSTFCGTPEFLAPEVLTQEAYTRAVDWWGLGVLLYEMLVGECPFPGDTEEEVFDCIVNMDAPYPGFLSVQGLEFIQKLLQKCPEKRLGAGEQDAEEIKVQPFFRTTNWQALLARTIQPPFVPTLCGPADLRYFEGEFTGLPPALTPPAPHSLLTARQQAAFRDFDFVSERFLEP
T3 sequence (P29597 whole entry): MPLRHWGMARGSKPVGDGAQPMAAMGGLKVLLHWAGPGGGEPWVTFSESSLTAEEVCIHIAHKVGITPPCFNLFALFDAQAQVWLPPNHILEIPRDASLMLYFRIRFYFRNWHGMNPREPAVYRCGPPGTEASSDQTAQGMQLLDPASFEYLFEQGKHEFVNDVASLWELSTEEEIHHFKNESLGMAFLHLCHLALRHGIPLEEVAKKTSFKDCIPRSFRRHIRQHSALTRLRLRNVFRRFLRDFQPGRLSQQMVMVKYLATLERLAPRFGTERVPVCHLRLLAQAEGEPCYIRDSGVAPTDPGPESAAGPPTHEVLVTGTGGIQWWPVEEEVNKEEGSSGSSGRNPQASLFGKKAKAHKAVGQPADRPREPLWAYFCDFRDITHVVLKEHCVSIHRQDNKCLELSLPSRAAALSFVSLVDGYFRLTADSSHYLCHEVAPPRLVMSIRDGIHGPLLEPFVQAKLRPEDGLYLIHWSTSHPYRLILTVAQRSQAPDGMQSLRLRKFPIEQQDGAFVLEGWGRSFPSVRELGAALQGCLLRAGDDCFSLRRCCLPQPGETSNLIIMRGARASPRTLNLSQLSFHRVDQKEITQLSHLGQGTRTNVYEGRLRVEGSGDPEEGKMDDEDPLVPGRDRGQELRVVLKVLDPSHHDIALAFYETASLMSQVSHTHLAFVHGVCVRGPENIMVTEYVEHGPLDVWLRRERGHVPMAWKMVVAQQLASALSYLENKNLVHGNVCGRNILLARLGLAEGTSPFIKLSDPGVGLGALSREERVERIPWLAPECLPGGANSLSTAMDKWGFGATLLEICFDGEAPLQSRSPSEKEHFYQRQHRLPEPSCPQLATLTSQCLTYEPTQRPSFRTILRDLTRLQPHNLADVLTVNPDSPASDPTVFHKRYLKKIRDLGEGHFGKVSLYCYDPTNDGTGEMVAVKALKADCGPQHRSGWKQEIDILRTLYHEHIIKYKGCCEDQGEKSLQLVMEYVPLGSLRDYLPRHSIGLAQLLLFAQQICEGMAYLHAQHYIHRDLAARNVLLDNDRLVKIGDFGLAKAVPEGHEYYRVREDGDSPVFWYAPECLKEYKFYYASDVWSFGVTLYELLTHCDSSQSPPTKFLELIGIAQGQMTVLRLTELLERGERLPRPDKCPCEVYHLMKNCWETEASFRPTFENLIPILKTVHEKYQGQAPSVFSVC
T2 sequence (P07949 29-1114): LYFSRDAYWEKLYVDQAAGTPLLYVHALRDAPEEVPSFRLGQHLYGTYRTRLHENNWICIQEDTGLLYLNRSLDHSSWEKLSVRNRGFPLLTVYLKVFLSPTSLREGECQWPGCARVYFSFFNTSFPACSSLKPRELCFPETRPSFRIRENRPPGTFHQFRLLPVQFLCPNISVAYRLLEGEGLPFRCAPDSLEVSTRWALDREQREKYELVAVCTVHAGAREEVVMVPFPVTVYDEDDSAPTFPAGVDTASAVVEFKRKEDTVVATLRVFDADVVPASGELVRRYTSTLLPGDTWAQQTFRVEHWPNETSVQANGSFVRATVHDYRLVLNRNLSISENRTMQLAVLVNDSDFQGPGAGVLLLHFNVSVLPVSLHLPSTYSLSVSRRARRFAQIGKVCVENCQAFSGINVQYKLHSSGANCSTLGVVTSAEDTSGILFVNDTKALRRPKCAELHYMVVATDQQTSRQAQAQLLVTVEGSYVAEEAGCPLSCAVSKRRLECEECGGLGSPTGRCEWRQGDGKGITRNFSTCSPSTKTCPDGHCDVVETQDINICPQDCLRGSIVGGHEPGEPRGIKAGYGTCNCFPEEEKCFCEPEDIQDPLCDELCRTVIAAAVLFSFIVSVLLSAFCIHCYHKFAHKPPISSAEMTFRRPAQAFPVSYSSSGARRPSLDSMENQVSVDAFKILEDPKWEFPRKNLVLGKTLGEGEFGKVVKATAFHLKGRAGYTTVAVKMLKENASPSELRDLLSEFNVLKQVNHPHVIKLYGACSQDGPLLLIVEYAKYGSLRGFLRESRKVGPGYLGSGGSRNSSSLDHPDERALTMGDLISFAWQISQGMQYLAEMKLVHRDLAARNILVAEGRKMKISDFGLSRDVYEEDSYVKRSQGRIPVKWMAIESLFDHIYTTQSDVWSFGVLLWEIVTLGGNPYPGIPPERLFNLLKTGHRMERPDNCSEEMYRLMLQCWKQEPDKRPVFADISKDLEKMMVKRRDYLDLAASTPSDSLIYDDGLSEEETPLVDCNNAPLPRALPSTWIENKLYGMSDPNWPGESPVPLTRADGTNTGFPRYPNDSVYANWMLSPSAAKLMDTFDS

As for `O=C(Nc1cnn(-c2csc(C(=O)NC3COC3)c2)c1)Nc1ccccc1Cl` [Compound 17, 4-(4-(3-(2-chlorophenyl)ureido)-1H-pyrazol-1-yl)-N-(oxetan-3-yl)thiophene-2-carboxamide], the remaining activity at 5 µM came to 97.9% in assay [1]; 97.8% in assay [2]; 95.9% in assay [3]; 99.4% in assay [4]; 92.5% in assay [5]; 99.5% in assay [6].

Regarding `O=C(Nc1cnn(-c2csc(C(=O)NC3COC3)c2)c1)Nc1c(F)cccc1Cl` [Compound 25, 4-(4-(3-(2-chloro-6-fluorophenyl)ureido)-1H-pyrazol-1-yl)-N-(oxetan-3-yl)thiophene-2-carboxamide], the remaining activity at 5 µM was 95.2% in assay [1]; 98.1% in assay [2]; 89.3% in assay [3]; 98.3% in assay [4]; 76.2% in assay [5]; 95.7% in assay [6].

Take `Cc1sc(C(=O)NC2COC2)cc1-n1cc(NC(=O)Nc2c(F)cccc2Cl)cn1` [Compound 27, 4-(4-(3-(2-chloro-6-fluorophenyl)ureido)-1H-pyrazol-1-yl)-5-methyl-N-(oxetan-3-yl)thiophene-2-carboxamide]: the remaining activity at 10 µM came out at 96.9% in assay [1] (10 uM); 113% in assay [2] (10 uM); 114% in assay [3] (10 uM); 90.5% in assay [4] (10 uM); 98.6% in assay [5] (10 uM); 80.2% in assay [6] (10 uM).

For the origin of these results see US20240246942A1, “KINASE INHIBITORS FOR THE TREATMENT OF NEURODEGENERATIVE DISEASES” (priority 2020, published 2024).
